Like-named read-outs stand apart in the source and are kept apart here.
Experiments:
rocuronium-induced block = assay: Reversal of rocuronium-induced block in several animal models; type: in vivo; settings: guinea pigs, cats and monkeys
[1] = Org 25969 with vecuronium; cited from earlier work
[2] = Org 25969 with pancuronium; cited from earlier work
[3] = Org 25969 with rapacuronium; compared with rocuronium (about 15.10^6 M^−1); cited from earlier work
[4] = Org 25969 with rocuronium; neutral pH and 25° C.; cited from earlier work
[5] = test system: M. adductor pollicis contractions; assay: Vecuronium-induced block of M. adductor pollicis contractions (TOF stimulation) and effect of Org 25969 in anaesthetised Rhesus monkeys; type: in vivo, Rhesus monkey
Experimental: • T1: first twitch: amplitude of the first response to TOF stimulation, expressed as percentage of control T1 (%). • T4/T1 ratio: the ratio of T4 over T1 (within one TOF stimulus) expressed as decimals.
Female Rhesus monkeys were starved overnight and sedated with 10 mg·kg^−1 ketamine i.m., followed by i.v. injection of 25 mg·kg^−1 pentobarbitone sodium and subsequent infusion of 5-10 mg·kg^−1hr^−1. The animals were intubated and ventilated with a mixture of oxygen and nitrous oxide (2:3), using a ventilator. The expired CO2 level was measured using a capnograph. The tidal volume was adjusted to obtain a CO2 level of approximately 4.5%. Oxygen saturation was measured via a probe on the earlobe using a pulse oxymeter. Blood pressure was measured non-invasively with a cuff placed on the tail. The ECG was recorded and heart rate was measured. Rectal temperature was measured and body temperature was kept at 37-38° C. using a heating blanket. The right hand and right arm of the animal were fixed to a frame using surgical tape. The thumb was connected to a force transducer. A pre-load of 200-500 mN was applied. Two needle electrode were placed near the N. ulnaris and the nerve was stimulated with train-of-four pulses (pulse duration: 2 ms, train-frequency: 0.07 Hz). At the end of the experiment, the animals were allowed to recover from anesthesia. Appropriate recovery care was given to all animals. Two groups of monkeys were used to assess the reversal effects of Org 25969 against the neuromuscular blocking agents rocuronium (Esmeron®/Zemuron®) and vecuronium (Norcuron®). In the first group, animals initially received an intravenous bolus injection of a 1×ED90 dose of rocuronium bromide to induce neuromuscular block, followed by spontaneous recovery of the twitches. After complete recovery of the twitches, each group received a second and larger 5×ED90 dose of rocuronium followed by spontaneous recovery in one subgroup, whereas the other subgroup received an intravenous bolus dose of 1150 nmol·kg^−1 Org 25969 as soon as all twitches had disappeared. In the vecuronium groups of animals, the same protocol was used, but rocuronium was replaced by vecuronium. Rocuronium bromide and vecuronium bromide were dissolved in a citric acid/phosphate/mannitol buffer (pH 4.0). Org 25969 was dissolved in saline.

[6] = test system: neuromuscular block in a patient; settings: cited from earlier work; for Time to >80% block: value (range)
[7] = 5× ED90 vecuronium + 1150 nmol · kg^−1 Org 25969 i.v.
[8] = 5× ED90 vecuronium in the subgroup given 1150 nmol · kg^−1 Org 25969 once all twitches had disappeared
[9] = rocuronium 0.45 mg.kg−1, n = 50
[10] = rocuronium 0.6 mg.kg−1, n = 142

## O=C(O)CCSC[C@H]1O[C@@H]2O[C@H]3[C@H](O)[C@@H](O)[C@@H](O[C@H]4[C@H](O)[C@@H](O)[C@@H](O[C@H]5[C@H](O)[C@@H](O)[C@@H](O[C@H]6[C@H](O)[C@@H](O)[C@@H](O[C@H]7[C@H](O)[C@@H](O)[C@@H](O[C@H]8[C@H](O)[C@@H](O)[C@@H](O[C@H]9[C@H](O)[C@@H](O)[C@@H](O[C@H]1[C@H](O)[C@H]2O)O[C@@H]9CSCCC(=O)O)O[C@@H]8CSCCC(=O)O)O[C@@H]7CSCCC(=O)O)O[C@@H]6CSCCC(=O)O)O[C@@H]5CSCCC(=O)O)O[C@@H]4CSCCC(=O)O)O[C@@H]3CSCCC(=O)O [Org 25969, 6-per-deoxy-6-per-(2-carboxyethyl)thio-γ-cyclodextrin]
rocuronium-induced block
  reversal of rocuronium-induced block: rapidly reverse rocuronium-induced block
[1]
  affinity (association constant): about 9.10^6 M^−1
[2]
  affinity (association constant): about 2.6.10^6 M^−1
[3]
  affinity (association constant): about the same
[4]
  association constant Ka: about 15.10^6 M^−1
[5]; 1150 nmol·kg^−1 Org 25969 i.v. after 5×ED90 vecuronium
  effect on recovery from vecuronium-induced block (in words): initial improvement of the time to 25% and 50% recovery values, but the recovery slowed down
[5]; [7]
  0.50-0.90 TOF ratio interval: 24.2 ± 3.9 min
  25-75% recovery index: 16.1 ± 3.7 min
  time to 25% recovery of T1: 9.7 ± 1.9 min
  time to 90% recovery of T1: 35.8 ± 7.1 min
  time to TOF ratio 0.90: 48.6 ± 8.3 min
[5]; [8]
  block: 100.0 ± 0.0%
  onset time: 1.0 ± 0.2 min

## C=CC[N+]1([C@H]2C[C@H]3[C@@H]4CC[C@H]5C[C@H](O)[C@@H](N6CCOCC6)C[C@]5(C)[C@H]4CC[C@]3(C)[C@H]2OC(C)=O)CCCC1 [rocuronium, rocuronium bromide]
[6]; neuromuscular block, clinical use
  ED95: 0.30 mg/kg
[6]; [9]
  Clinical duration (time until return to 25% of control T1): 22 min
  Time to maximum block: 3.0 min
  Time to >80% block: 1.3 (0.8-6.2) min
[6]; [10]
  Clinical duration (time until return to 25% of control T1): 31 min
  Time to maximum block: 1.8 min
  Time to >80% block: 1.0 (0.4-6.0) min
[6]; rocuronium 0.9 mg.kg−1, n = 20
  Clinical duration (time until return to 25% of control T1): 58 min
  Time to maximum block: 1.4 min
  Time to >80% block: 1.1 (0.3-3.8) min
[6]; rocuronium 1.2 mg.kg−1, n = 18
  Clinical duration (time until return to 25% of control T1): 67 min
  Time to maximum block: 1.0 min
  Time to >80% block: 0.7 (0.4-1.7) min
